Values of other authors as cited in patent publication US6979682B2, “Platelet-activating factor antagonist inhibition of angiogenesis and tumor growth induced by basic fibroblast” (Board of Supervisors of Louisiana State University and …, priority 2001, dated 2005).
Entries after “also recorded” stand apart in the source; their conditions may differ.

Experiments:
[1] = system: PAF binding sites (microsomal intracellular membranes; synaptosomal plasma membrane); settings: Marcheselli et al., 1990; cited from earlier work
[2] = system: angiogenesis stimulated by HGF, TNF-α or bFGF; settings: cited from earlier work

Row | Compound | binding to the intracellular PAF binding sites [1] | angiogenesis stimulated by bFGF ([2]; Camussi et al., 1997, Montrucchio et al.) | angiogenesis stimulated by HGF ([2]; Camussi et al., 1997) | angiogenesis stimulated by TNF-α ([2]; Montrucchio et al.)
1 | CCCCCCCCCCCCCCCCCCNC(=O)OCC(COP(=O)([O-])OCC[n+]1ccsc1)OC (stereo not shown) [CV-3988, reference compound] | known to bind to the intracellular PAF binding sites | – | – | –
2 | Cc1nnc2n1-c1sc3c(c1C(c1ccccc1Cl)=NC2)CC(C(=O)N1CCOCC1)C3 (stereo not shown) [WEB 2170] | – | did not inhibit; also recorded: not inhibited | inhibited | inhibited
